Data from US20240299400A1, “Transcription Factor GLI1 Inhibitors and Uses Thereof” (University of Connecticut, priority 2023, published 2024).

Columns and labels:
[1] = tested on: GLI1 mRNA expression; experiment: RT-qPCR GLI1 mRNA expression in OHCs-stimulated C3H10T1/2 MEFs; format: cell-based, mouse; settings: for IC50: Mus musculus
Procedure: (§1) ASZ001 and Sufu-KO cells were seeded in 96-well plates (10,000/well, 100 μL) and incubated overnight under growth conditions. On the second day, ‘growth’ media was removed and replaced by ‘assay’ media (100 μL). On the third day, cells were treated with a serial dilution of drugs or DMSO for 48 h. mRNA expression was determined through Taqman Fast Cells-to-CT Kit (#4399003) per the manufacturer's instructions. In brief, cells were washed with chilled PBS, then mixed with lysis solution containing DNase I and incubated at RT for 5 min. Stop solution was then added to quench the lysis reagents. cDNA was then synthesized through a BioRad MyCycler following addition of reverse transcriptase. Finally, the cDNA was amplified through an ABI 7500 system following addition of Taqman Fast Universal PCR Master Mix and Taqman Gene Expression Primer. Relative gene expression levels were computed by the ΔΔCt method. Values represent mRNA expression relative to DMSO control (set at 1.0). Data were analyzed using GraphPad Prism, and IC50 values are the mean±SEM for at least two separate experiments performed in triplicate. Primers used are as follows: mouse ActB (Mm00607939_s1); mouse GLI1 (Mm00494645_ml); mouse Gli2 (Mm01293117_ml); mouse Ptch1 (Mm00436026_ml); mouse Hhip (Mm00469580_ml).
C3H10T1/2 MEFs were seeded in 24-well plates (50,000/well, 500 μL). Following 24 h incubation, the ‘growth’ media was removed and replaced with ‘assay’ media (500 μL). On the third day, cells were treated with either DMSO, OHCs, or OHCs+drugs. Following a 24 h incubation, gene expression analysis was carried out following identical protocols as described above.

[2] = tested on: GLI1 mRNA expression; experiment: RT-qPCR GLI1 mRNA expression in Sufu-KO MEFs; format: cell-based, mouse; settings: Mus musculus
[3] = tested on: GLI1 mRNA expression; experiment: RT-qPCR GLI1 mRNA expression in ASZ001 BCC cells; format: cell-based, mouse; settings: Mus musculus
[4] = target: T1, GLI1-ZFD (Homo sapiens, UniProt P08151); experiment: Microscale thermophoresis (MST) binding to GLI1-ZFD
T1 construct: GLI1-ZFD Expression and Purification; made in house
T1 sequence (P08151 234-388 limits assumed): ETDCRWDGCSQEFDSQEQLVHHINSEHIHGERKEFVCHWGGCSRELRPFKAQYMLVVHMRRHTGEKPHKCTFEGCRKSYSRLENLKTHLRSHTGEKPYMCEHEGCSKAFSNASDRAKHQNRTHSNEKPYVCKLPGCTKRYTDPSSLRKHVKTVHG
Procedure: The protein expression and purification experiments followed the previous reported procedures [C. A. Maschinot, et al., Synthesis and evaluation of third generation vitamin D3 analogues as inhibitors of hedgehog signaling. Euro. J. Med. Chem. 162 (2019) 495-506].
GLI1 protein labeling was performed through the Monolith Protein Labeling Kit RED-NHS 2nd Generation (Nanotemper #MO-LO11) per the manufacturer's instructions. Briefly, GLI1 (100 μg, 1 mg/mL) underwent buffer exchange to remove incompatible ingredients like Tris or DTT. Proteins in the Labeling Buffer were incubated with freshly prepared dye (˜3-fold excess of dye) for 30 min at RT in the dark. Unreacted ‘free’ dye was removed by a gel-filtration column. Protein concentration and degree-of-labeling were calculated by measuring absorption at 280 nm and 650 nm. For each assay, 200 nM GLI1 in MST Buffer was mixed with compound dilution in DMSO (DMSO<5%, v/v). The mixture was then loaded to a capillary and the thermophoresis was subsequently determined through Monolith NT.115 station. Results were analyzed by MO.Affinity Analysis software and visualized by Graphpad Prism. MST Buffer: 50 mM HEPES, pH 8.3, 100 mM NaCl.

[5] = tested on: ASZ001 cells; experiment: MTS anti-proliferative assay in ASZ001 cells; format: cell-based, murine; settings: Mus musculus, ASZ001; Table 5, 48 h, Ave ± SEM
[6] = tested on: DAOY (MB); experiment: MTS anti-proliferative assay in DAOY cells; format: cell-based; settings: Homo sapiens, Daoy; Table 8, 48 h, mean ± SEM
Procedure: (§2) Cell viability was assessed by MTS proliferation assay kit (Promega) per manufacturer's protocol. Briefly, 2×10^4 cells were plated in a 96-well plate in 100 μL growth medium to make the cell population at ˜80% confluence. After 24 h, 1 μL drug solution was added to each well. DMSO was used as vehicle compound. After 48 h incubation (37° C., 5% CO2), 20 μL of freshly prepared 3-(4,5-dimethylthiazol-2-yl)-5-(3-carboxymethoxyphenyl)-2-(4-sulfophenyl)-2H-tetrazolium (MTS)/phenazine methosulfate (PMS) solution was added to each well, and the plate was returned to the incubator for 1 h. Absorbance at 490 nm was recorded, and the result was analyzed by GraphPad Prism 5. GI50 values represent mean±SEM for at least two separate experiments performed in triplicate.

[7] = tested on: PANC-1 (pancreatic); experiment: MTS anti-proliferative assay in PANC-1 cells; format: cell-based; settings: Homo sapiens, PANC-1; Table 8, 48 h, mean ± SEM
Procedure: as §2

[8] = tested on: Gli2 mRNA expression; experiment: RT-qPCR Gli2 mRNA expression in ASZ001 cells; format: cell-based, mouse; settings: 10 μM
Procedure: as §1

[9] = tested on: Ptch1 mRNA expression; experiment: RT-qPCR Ptch1 mRNA expression in ASZ001 cells; format: cell-based, mouse; settings: FIG. 4A
Procedure: as §1

[10] = tested on: GLI1 protein levels; experiment: Western blot GLI1 protein expression in ASZ001 cells; format: cell-based, murine; settings: 25 μM
Procedure: (§3) ASZ001 cells were plated as described above and treated with drugs or vehicle control. Following incubation, cells were washed with chilled PBS and lysed with RIPA buffer containing […] PMSF protease inhibitor (Thermo Scientific #26978). Supernatant was collected following 15 min centrifugation at 12,000 rpm and 4° C. Protein concentrations from cell extracts were determined through the BCA kit (Pierce #23228) per the manufacturer's instructions. Proteins from either cell lysate or cell-free biochemical assay were then loaded on 12% SDS-PAGE. Following electrophoresis, proteins were transferred onto nitrocellulose membrane at 100 V for 120 min at 4° C. On a clean tray with constant gentle shaking, the membrane was sequentially submerged in 5% BSA for 1 h, and incubated with the primary antibody indicated overnight at 4° C. After washes with TBST, the appropriate secondary antibody was added to the tray for a 2 h incubation at RT. Chemiluminescent detection on film was visualized using ECL reagents (BioRad #1705060) and subsequently quantitated using Image J (http://imagej.nih.gov). Primary antibodies were used at 1:2000 dilution and are as follows: GLI1 (#MA5-32553); Gli2 (#PA5-79314); β-Actin (#PA1-16889). Secondary antibody (Goat anti-Rabbit, #32460) was used at a 1:5000 dilution. All antibodies were purchased from Invitrogen.

[11] = tested on: GLI2 protein expression; experiment: Western blot GLI2 protein expression in ASZ001 cells; format: cell-based, murine; settings: 25 μM
Procedure: as §3

IC50 ([1]; C3H 10T1/2, Table 2, mean ± SEM, read-out: GLI1 mRNA expression, IC50 C3H10T1/2): 260 ± 160 nM | IC50 ([1]; C3H 10T1/2, Table 4, racemates and enantiomers, mean ± SEM, read-out: RT-qPCR, IC50 C3H10T1/2): 260 ± 160 nM | IC50 ([2]; Table 2, mean ± SEM, read-out: GLI1 mRNA expression, IC50 Sufu-KO): 1500 ± 500 nM | IC50 ([2]; Table 4, racemates and enantiomers, mean ± SEM, read-out: RT-qPCR, IC50 Sufu-KO): 1500 ± 500 nM | IC50 ([2]; Table 5, GLI1 mRNA, Ave ± SEM, read-out: RT-qPCR, IC50 Sufu-KO): 1500 ± 500 nM | IC50 ([3]; ASZ001, Table 2, mean ± SEM, read-out: GLI1 mRNA expression, IC50 ASZ001): 1300 ± 700 nM | IC50 ([3]; ASZ001, Table 4, racemates and enantiomers, mean ± SEM, read-out: RT-qPCR, IC50 ASZ001): 1300 ± 700 nM | IC50 ([3]; ASZ001, Table 5, GLI1 mRNA, Ave ± SEM, read-out: RT-qPCR, IC50 ASZ001): 1300 ± 700 nM | Kd ([4]; Table 2, mean ± SEM): 13400 ± 4000 nM | Kd ([4]; Table 4, mean ± SEM): 13400 ± 4000 nM | Kd ([4]; Table 5, Ave ± SEM): 13800 ± 3400 nM | GI50 [7]: 21.1 ± 4.2 µM
SMILES: CCN(CC)c1ccc(C(Nc2ccccn2)c2ccc3ccc(C)nc3c2O)cc1 (stereo not shown) [Compound 1]
% Gli1 Expression ([1]; C3H10T1/2 MEFs, 10 μM, relative to Hh-agonist OHCs (set as 100%), mean ± SEM): 5.9 ± 0.5% | GI50 [5]: 13800 ± 3400 nM | GI50 [6]: 14.1 ± 2 µM | inhibition of Gli2 mRNA expression, rank (in words) [8]: most active | Ptch1 mRNA expression (in words) [9]: significantly down-regulated | GLI1 protein levels (in words) [10]: significantly down-regulated | GLI2 protein expression (in words) [11]: significantly suppressed
